Measurements taken from the supplement of paper PMC10307832.

Assays:
Assay in all cases: relative viability (nuclei count vs DMSO), 5 days (fraction); higher = more cells survive
Axitinib + Navitoclax = compound: CNC(=O)c1ccccc1Sc1ccc2c(/C=C/c3ccccn3)n[nH]c2c1 [Axitinib] + CC1(C)CCC(c2ccc(Cl)cc2)=C(CN2CCN(c3ccc(C(=O)NS(=O)(=O)c4ccc(N[C@H](CCN5CCOCC5)CSc5ccccc5)c(S(=O)(=O)C(F)(F)F)c4)cc3)CC2)C1 [Navitoclax] (partner 0.5 µM)
Outline: (§1)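 Lung cancer cell lines were pin-tool dosed in 1536-well plates on the day after seeding, with either a lone drug or a fixed anchor-drug dose plus five library-drug doses (not always all listed) in √10 steps. Nuclei were counted on 4× images after 5 days. Relative viability is the ratio of treated-well to vehicle-well nuclei counts, with each value a median of duplicate plates.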

[1] = compound: CC1=CC=C(C=C1)C(=O)CN2C3=C(CCCC3)SC2=N [Pifithrin_alpha] + Cc1nc(Nc2ncc(C(=O)Nc3c(C)cccc3Cl)s2)cc(N2CCN(CCO)CC2)n1 [Dasatinib] (partner 0.075 µM)
Outline: as §1

Axitinib + Palbociclib = compound: CNC(=O)c1ccccc1Sc1ccc2c(/C=C/c3ccccn3)n[nH]c2c1 [Axitinib] + CC(=O)c1c(C)c2cnc(Nc3ccc(N4CCNCC4)cn3)nc2n(C2CCCC2)c1=O [Palbociclib] (partner 0.5 µM)
Outline: as §1

Axitinib + Pemetrexed = compound: CNC(=O)c1ccccc1Sc1ccc2c(/C=C/c3ccccn3)n[nH]c2c1 [Axitinib] + Nc1nc2[nH]cc(CCc3ccc(C(=O)N[C@@H](CCC(=O)O)C(=O)O)cc3)c2c(=O)[nH]1 [Pemetrexed] (partner 0.2 µM)
Outline: as §1

EBC-1 gave a relative viability (Axitinib + Navitoclax; first compound 0.005 µM) of 0.468, a relative viability (Axitinib + Navitoclax; first compound 0.01581 µM) of 0.443 and a relative viability (Axitinib + Navitoclax; first compound 0.05 µM) of 0.453. For the same cell line, the relative viability (Axitinib + Navitoclax; first compound 0.1581 µM) was 0.509 and the relative viability (Axitinib + Navitoclax; first compound 0.5 µM) was 0.554.

EKVX gave a relative viability (Axitinib + Navitoclax; first compound 0.005 µM) of 1.07, a relative viability (Axitinib + Navitoclax; first compound 0.01581 µM) of 0.962 and a relative viability (Axitinib + Navitoclax; first compound 0.05 µM) of 0.823. The relative viability (Axitinib + Navitoclax; first compound 0.1581 µM) was 0.921, the relative viability (Axitinib + Navitoclax; first compound 0.5 µM) was 0.961 and the relative viability ([1]; first compound 3.162 µM) was 0.461. The relative viability ([1]; first compound 10 µM) was 0.352, the relative viability ([1]; first compound 31.62 µM) was 0.404 and the relative viability ([1]; first compound 100 µM) was 0.384. For the same cell line, the relative viability (Axitinib + Palbociclib; first compound 0.005 µM) was 0.402, the relative viability (Axitinib + Palbociclib; first compound 0.01581 µM) was 0.368 and the relative viability (Axitinib + Palbociclib; first compound 0.05 µM) was 0.433. It also gave a relative viability (Axitinib + Palbociclib; first compound 0.1581 µM) of 0.381, a relative viability (Axitinib + Palbociclib; first compound 0.5 µM) of 0.358 and a relative viability (Axitinib + Pemetrexed; first compound 0.005 µM) of 0.428. For the same cell line, the relative viability (Axitinib + Pemetrexed; first compound 0.01581 µM) was 0.376, the relative viability (Axitinib + Pemetrexed; first compound 0.05 µM) was 0.457 and the relative viability (Axitinib + Pemetrexed; first compound 0.1581 µM) was 0.417. It also gave a relative viability (Axitinib + Pemetrexed; first compound 0.5 µM) of 0.398.

In the case of EMC-BAC-2, the relative viability (Axitinib + Navitoclax; first compound 0.005 µM) is reported as 1.27, the relative viability (Axitinib + Navitoclax; first compound 0.01581 µM) is reported as 1.12 and the relative viability (Axitinib + Navitoclax; first compound 0.05 µM) is reported as 1.16. For the same cell line, the relative viability (Axitinib + Navitoclax; first compound 0.1581 µM) was 1.16, the relative viability (Axitinib + Navitoclax; first compound 0.5 µM) was 1.27 and the relative viability ([1]; first compound 1 µM) was 0.311. The relative viability ([1]; first compound 3.162 µM) was 0.319, the relative viability ([1]; first compound 10 µM) was 0.298 and the relative viability ([1]; first compound 100 µM) was 0.311. For the same cell line, the relative viability (Axitinib + Palbociclib; first compound 0.005 µM) was 0.522, the relative viability (Axitinib + Palbociclib; first compound 0.01581 µM) was 0.562 and the relative viability (Axitinib + Palbociclib; first compound 0.05 µM) was 0.49. For the same cell line, the relative viability (Axitinib + Palbociclib; first compound 0.1581 µM) was 0.508, the relative viability (Axitinib + Palbociclib; first compound 0.5 µM) was 0.533 and the relative viability (Axitinib + Pemetrexed; first compound 0.005 µM) was 0.476. It also gave a relative viability (Axitinib + Pemetrexed; first compound 0.01581 µM) of 0.464, a relative viability (Axitinib + Pemetrexed; first compound 0.05 µM) of 0.456 and a relative viability (Axitinib + Pemetrexed; first compound 0.1581 µM) of 0.461. For the same cell line, the relative viability (Axitinib + Pemetrexed; first compound 0.5 µM) was 0.518.

EPLC-272H gave a relative viability (Axitinib + Navitoclax; first compound 0.005 µM) of 1.19, a relative viability (Axitinib + Navitoclax; first compound 0.01581 µM) of 1.11 and a relative viability (Axitinib + Navitoclax; first compound 0.05 µM) of 1.09. The relative viability (Axitinib + Navitoclax; first compound 0.1581 µM) was 1.18, the relative viability (Axitinib + Navitoclax; first compound 0.5 µM) was 1.09 and the relative viability ([1]; first compound 1 µM) was 0.236. The relative viability ([1]; first compound 3.162 µM) was 0.344, the relative viability ([1]; first compound 10 µM) was 0.324 and the relative viability ([1]; first compound 31.62 µM) was 0.279. It also gave a relative viability ([1]; first compound 100 µM) of 0.379, a relative viability (Axitinib + Palbociclib; first compound 0.005 µM) of 0.294 and a relative viability (Axitinib + Palbociclib; first compound 0.01581 µM) of 0.369. It also gave a relative viability (Axitinib + Palbociclib; first compound 0.05 µM) of 0.336, a relative viability (Axitinib + Palbociclib; first compound 0.1581 µM) of 0.354 and a relative viability (Axitinib + Palbociclib; first compound 0.5 µM) of 0.309. For the same cell line, the relative viability (Axitinib + Pemetrexed; first compound 0.005 µM) was 0.333, the relative viability (Axitinib + Pemetrexed; first compound 0.01581 µM) was 0.341 and the relative viability (Axitinib + Pemetrexed; first compound 0.05 µM) was 0.302. The relative viability (Axitinib + Pemetrexed; first compound 0.1581 µM) was 0.381 and the relative viability (Axitinib + Pemetrexed; first compound 0.5 µM) was 0.336.

In the case of H3255, the relative viability (Axitinib + Navitoclax; first compound 0.005 µM) is reported as 0.617, the relative viability (Axitinib + Navitoclax; first compound 0.01581 µM) is reported as 0.377 and the relative viability (Axitinib + Navitoclax; first compound 0.05 µM) is reported as 0.354. It also gave a relative viability (Axitinib + Navitoclax; first compound 0.1581 µM) of 0.476, a relative viability (Axitinib + Navitoclax; first compound 0.5 µM) of 0.561 and a relative viability ([1]; first compound 1 µM) of 0.29. It also gave a relative viability ([1]; first compound 3.162 µM) of 0.344, a relative viability ([1]; first compound 10 µM) of 0.308 and a relative viability ([1]; first compound 31.62 µM) of 0.32. The relative viability ([1]; first compound 100 µM) was 0.274, the relative viability (Axitinib + Palbociclib; first compound 0.005 µM) was 0.332 and the relative viability (Axitinib + Palbociclib; first compound 0.01581 µM) was 0.294. It also gave a relative viability (Axitinib + Palbociclib; first compound 0.05 µM) of 0.316, a relative viability (Axitinib + Palbociclib; first compound 0.1581 µM) of 0.334 and a relative viability (Axitinib + Palbociclib; first compound 0.5 µM) of 0.329. It also gave a relative viability (Axitinib + Pemetrexed; first compound 0.005 µM) of 0.531, a relative viability (Axitinib + Pemetrexed; first compound 0.01581 µM) of 0.527 and a relative viability (Axitinib + Pemetrexed; first compound 0.05 µM) of 0.568. It also gave a relative viability (Axitinib + Pemetrexed; first compound 0.1581 µM) of 0.568 and a relative viability (Axitinib + Pemetrexed; first compound 0.5 µM) of 0.578.

Cell Line HARA has a relative viability (Axitinib + Navitoclax; first compound 0.005 µM) of 0.979, a relative viability (Axitinib + Navitoclax; first compound 0.01581 µM) of 1.08 and a relative viability (Axitinib + Navitoclax; first compound 0.05 µM) of 1.14. For the same cell line, the relative viability (Axitinib + Navitoclax; first compound 0.1581 µM) was 1.08, the relative viability (Axitinib + Navitoclax; first compound 0.5 µM) was 1.19 and the relative viability ([1]; first compound 3.162 µM) was 0.256. It also gave a relative viability ([1]; first compound 10 µM) of 0.257, a relative viability ([1]; first compound 100 µM) of 0.268 and a relative viability (Axitinib + Palbociclib; first compound 0.005 µM) of 0.241. For the same cell line, the relative viability (Axitinib + Palbociclib; first compound 0.01581 µM) was 0.334, the relative viability (Axitinib + Palbociclib; first compound 0.05 µM) was 0.216 and the relative viability (Axitinib + Palbociclib; first compound 0.1581 µM) was 0.221. It also gave a relative viability (Axitinib + Palbociclib; first compound 0.5 µM) of 0.247, a relative viability (Axitinib + Pemetrexed; first compound 0.005 µM) of 0.231 and a relative viability (Axitinib + Pemetrexed; first compound 0.01581 µM) of 0.265. The relative viability (Axitinib + Pemetrexed; first compound 0.05 µM) was 0.309, the relative viability (Axitinib + Pemetrexed; first compound 0.1581 µM) was 0.26 and the relative viability (Axitinib + Pemetrexed; first compound 0.5 µM) was 0.258.

With HCC-15 the relative viability (Axitinib + Navitoclax; first compound 0.005 µM) was 0.763, the relative viability (Axitinib + Navitoclax; first compound 0.01581 µM) was 0.699 and the relative viability (Axitinib + Navitoclax; first compound 0.05 µM) was 0.727. It also gave a relative viability (Axitinib + Navitoclax; first compound 0.1581 µM) of 0.706, a relative viability (Axitinib + Navitoclax; first compound 0.5 µM) of 0.78 and a relative viability ([1]; first compound 1 µM) of 0.634. The relative viability ([1]; first compound 3.162 µM) was 0.61, the relative viability ([1]; first compound 10 µM) was 0.485 and the relative viability ([1]; first compound 31.62 µM) was 0.275. For the same cell line, the relative viability ([1]; first compound 100 µM) was 0.264, the relative viability (Axitinib + Palbociclib; first compound 0.005 µM) was 0.764 and the relative viability (Axitinib + Palbociclib; first compound 0.01581 µM) was 0.766. For the same cell line, the relative viability (Axitinib + Palbociclib; first compound 0.05 µM) was 0.749, the relative viability (Axitinib + Palbociclib; first compound 0.1581 µM) was 0.703 and the relative viability (Axitinib + Palbociclib; first compound 0.5 µM) was 0.65. It also gave a relative viability (Axitinib + Pemetrexed; first compound 0.005 µM) of 0.211, a relative viability (Axitinib + Pemetrexed; first compound 0.01581 µM) of 0.228 and a relative viability (Axitinib + Pemetrexed; first compound 0.05 µM) of 0.23. It also gave a relative viability (Axitinib + Pemetrexed; first compound 0.1581 µM) of 0.22 and a relative viability (Axitinib + Pemetrexed; first compound 0.5 µM) of 0.211.

Cell Line HCC-44 has a relative viability (Axitinib + Navitoclax; first compound 0.005 µM) of 1.04, a relative viability (Axitinib + Navitoclax; first compound 0.01581 µM) of 1.06 and a relative viability (Axitinib + Navitoclax; first compound 0.05 µM) of 0.99. It also gave a relative viability (Axitinib + Navitoclax; first compound 0.1581 µM) of 0.939, a relative viability (Axitinib + Navitoclax; first compound 0.5 µM) of 1.12 and a relative viability (Axitinib + Palbociclib; first compound 0.005 µM) of 0.946. The relative viability (Axitinib + Palbociclib; first compound 0.01581 µM) was 0.967, the relative viability (Axitinib + Palbociclib; first compound 0.05 µM) was 0.988 and the relative viability (Axitinib + Palbociclib; first compound 0.1581 µM) was 0.96. The relative viability (Axitinib + Palbociclib; first compound 0.5 µM) was 1.04, the relative viability (Axitinib + Pemetrexed; first compound 0.005 µM) was 0.625 and the relative viability (Axitinib + Pemetrexed; first compound 0.01581 µM) was 0.631. It also gave a relative viability (Axitinib + Pemetrexed; first compound 0.05 µM) of 0.626, a relative viability (Axitinib + Pemetrexed; first compound 0.1581 µM) of 0.624 and a relative viability (Axitinib + Pemetrexed; first compound 0.5 µM) of 0.676.

In the case of HCC-78, the relative viability (Axitinib + Navitoclax; first compound 0.005 µM) is reported as 0.873, the relative viability (Axitinib + Navitoclax; first compound 0.01581 µM) is reported as 0.842 and the relative viability (Axitinib + Navitoclax; first compound 0.05 µM) is reported as 0.727. It also gave a relative viability (Axitinib + Navitoclax; first compound 0.1581 µM) of 0.754, a relative viability (Axitinib + Navitoclax; first compound 0.5 µM) of 0.737 and a relative viability ([1]; first compound 1 µM) of 0.259. The relative viability ([1]; first compound 3.162 µM) was 0.354, the relative viability ([1]; first compound 10 µM) was 0.336 and the relative viability ([1]; first compound 31.62 µM) was 0.417. The relative viability ([1]; first compound 100 µM) was 0.455, the relative viability (Axitinib + Palbociclib; first compound 0.005 µM) was 0.504 and the relative viability (Axitinib + Palbociclib; first compound 0.01581 µM) was 0.408. It also gave a relative viability (Axitinib + Palbociclib; first compound 0.05 µM) of 0.469, a relative viability (Axitinib + Palbociclib; first compound 0.1581 µM) of 0.5 and a relative viability (Axitinib + Palbociclib; first compound 0.5 µM) of 0.449. The relative viability (Axitinib + Pemetrexed; first compound 0.005 µM) was 0.919, the relative viability (Axitinib + Pemetrexed; first compound 0.01581 µM) was 0.941 and the relative viability (Axitinib + Pemetrexed; first compound 0.05 µM) was 0.933. For the same cell line, the relative viability (Axitinib + Pemetrexed; first compound 0.1581 µM) was 0.974 and the relative viability (Axitinib + Pemetrexed; first compound 0.5 µM) was 0.962.
